What is called pIC50 is −log10 of the IC50, conventionally taken in molar units. As a reminder, the pKi is −log10 of the Ki, conventionally taken in molar units. Low values mean a large Ki, high ones a small Ki. A word on the inhibition: it is the percentage by which the read-out fell short of the control.

Results on 46 compounds are retold here after ChEMBL document CHEMBL3860032, “Identification of noncovalent proteasome inhibitors with high selectivity for chymotrypsin-like activity by a multistep structure-based virtual screening” (Eur J Med Chem, 2016).

The test system of assay [1] is MM1R. As to the kind of experiment: Inhibition of proteasome activity in human MM1R cells assessed as increase in total ubiquitin levels at 20 uM after 24 hrs by Western blot method. The format is cell-based.
Assay [2] in a line: Cytotoxicity against human MM1R cells assessed as residual vitality at 100 uM after 24 hrs by MTT assay relative to control. The format is functional. On the technique in general: Tetrazolium assays rely on reduction of a dye to a coloured formazan, in cell work by metabolically active cells.
Assay [3] can be described thus: Cytotoxicity against human MM1R cells assessed as growth inhibition after 24 hrs by MTT assay. The class given is functional, cell-based. As to conditions: MM.1R.
Assay [4] concerns the target T1, Proteasome Macropain subunit MB1 (Homo sapiens, UniProt P28074).
T1 sequence (P28074 whole entry): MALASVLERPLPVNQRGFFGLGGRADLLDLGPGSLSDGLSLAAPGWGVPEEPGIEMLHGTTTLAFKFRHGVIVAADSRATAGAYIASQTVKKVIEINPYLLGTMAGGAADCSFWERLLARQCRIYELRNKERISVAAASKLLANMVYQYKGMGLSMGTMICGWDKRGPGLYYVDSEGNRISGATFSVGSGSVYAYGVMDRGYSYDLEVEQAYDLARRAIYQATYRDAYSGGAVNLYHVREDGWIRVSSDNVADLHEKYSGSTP
In words: Competitive inhibition of chymotrypsin-like activity of human 20S proteasome using Suc-Leu-Leu-Val-Tyr-AMC as substrate measured for 10 mins by fluorescence assay.

Assay [5] deals with T2, Proteasome Macropain subunit MB1 (Homo sapiens) (UniProt P28074).
T2 sequence (whole entry): T1 sequence (P28074 whole entry)
As to the kind of experiment: Inhibition of chymotrypsin-like activity of human 20S proteasome at 50 uM using Suc-Leu-Leu-Val-Tyr-AMC as substrate measured for 10 mins by fluorescence assay relative to control.

For assay [6], the target named is Proteasome Macropain subunit (Homo sapiens) (UniProt P49721). As to the kind of experiment: Inhibition of trypsin-like activity of human 20S proteasome at 50 uM using Boc-Leu-Arg-Arg-AMC as substrate measured for 10 mins by fluorescence assay relative to control.
Assay [7] addresses T3, Proteasome component C5 (Homo sapiens) (UniProt P20618).
T3 sequence (whole entry): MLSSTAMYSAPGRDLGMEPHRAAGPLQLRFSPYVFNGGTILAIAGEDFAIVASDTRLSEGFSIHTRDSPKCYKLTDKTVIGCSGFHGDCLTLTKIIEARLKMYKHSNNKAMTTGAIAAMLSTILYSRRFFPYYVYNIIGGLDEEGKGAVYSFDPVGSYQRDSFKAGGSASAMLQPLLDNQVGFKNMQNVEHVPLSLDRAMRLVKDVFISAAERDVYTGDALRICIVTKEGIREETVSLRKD
As to the kind of experiment: Inhibition of post-glutamyl peptide hydrolyzing activity of human 20S proteasome at 50 uM using Cbz-Leu-Leu-Glu-AMC as substrate measured for 10 mins by fluorescence assay relative to control.

For assay [8], the target named is T2, Proteasome Macropain subunit MB1 (Homo sapiens). As to the kind of experiment: Time-dependent inhibition of chymotrypsin-like activity of human 20S proteasome using Suc-Leu-Leu-Val-Tyr-AMC as substrate at 10 to 100 uM by fluorescence assay.
The test system of assay [9] is MM1R. As to the kind of experiment: Inhibition of proteasome activity in human MM1R cells assessed as increase in total ubiquitin levels at 10 uM after 24 hrs by Western blot method. The format is cell-based.

pIC50, pKi: −log10 of the molar value. The source made the active and inactive calls. No cut-off for these calls is given here. Non-standard residues stand in square brackets, D forms with d. Residues, ends and D or L forms follow the SMILES beside them. ξ: configuration not given here. *: point of attachment. ξY = NC(Cc1ccc(O)cc1)C(=O)O; Nva = CCC[CH](N)C(=O)O; Cbz = O=C(OCc1ccccc1)*; ξI = CCC(C)C(N)C(=O)O; ξL = CC(C)CC(N)C(=O)O; ξT = CC(O)C(N)C(=O)O; NHNH2 = NN*

Sequence of Proteasome Macropain subunit (Homo sapiens) (P49721 whole entry): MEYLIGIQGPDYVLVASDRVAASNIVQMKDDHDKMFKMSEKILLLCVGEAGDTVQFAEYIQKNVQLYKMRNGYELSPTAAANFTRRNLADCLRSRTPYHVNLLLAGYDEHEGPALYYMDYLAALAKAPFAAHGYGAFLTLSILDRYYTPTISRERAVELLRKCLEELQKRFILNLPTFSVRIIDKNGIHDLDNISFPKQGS

As for `CN/C(=N\CCSCc1ccc2ccccc2n1)NS(=O)(=O)c1ccccc1`, the “increase in total ubiquitin levels (qualitative)” value (shortened to “increase”) in the assay on MM1R [1] is “Active”. Besides, in assay [2], the Activity worked out at 4%. Moreover, the pIC50 in assay [3] was 4.74. Also, the pKi in assay [4] was 5.67. Consider `CC(=O)NC(Cc1ccccc1)C(=O)Nc1ccc(C)cc1` (centres undefined), for which the inhibition in [5] worked out at 43%. On the same count and under the same terms, to `CC(=O)NC(Cc1ccccc1)C(=O)Nc1ccc(S(N)(=O)=O)cc1` (centres undefined) belongs 34%; to `CC(C)(C)OC(=O)Cn1ncn(NC(=O)Cc2ccccc2)c1=O`, 49%. `CC(C)(C)Oc1ccc(C[C@@H](NC(=O)OCC2c3ccccc3-c3ccccc32)C(=O)O)cc1` gave an inhibition in assay [5] of 59%. Still for that read-out and setting: to `CC(C)C[C@H](NC(=O)c1cnc2ccccc2n1)C(=O)O` belongs 34%. `CC(C)[C@H](NC(=O)[C@H](Cc1ccc(O)cc1)NC(=O)OCc1ccccc1)C(=O)O` returned an inhibition in assay [5] of 21%.

Turning to `CC(Cc1ccccc1)NC(=O)C(O)C(O)C(O)C(O)CCO` (centres undefined), the results for the inhibition in [6] and in assay [5] were 6% and 36%, respectively. In [5], `CC(NC(=O)OCc1ccccc1)C(=O)NC(Cc1ccc(O)cc1)C(=O)OCc1ccccc1` (centres undefined) showed an inhibition of 22%. `CCOC(=O)C(NC(=O)Cc1ccccc1)C(=O)OCC` registered an inhibition in assay [5] of 49%. The same measure, in the same setting: to `CCOC(=O)c1ccc(NC(=O)CSc2nc3ccccc3o2)cc1` belongs 13%; to `CNC(Cc1ccc(OCc2ccccc2)cc1)C(=O)NC(CO)CC(C)C` (centres undefined), 33%. The compound `COC(=O)C(CC(C)C)NC(=O)C(Cc1ccc(O)cc1)N(C(=O)OCc1ccccc1)C(=O)OCc1ccccc1` (centres undefined) returned an inhibition in [5] of 46%. In assay [5], `C[C@H](NC(=O)OCc1ccccc1)C(=O)N[C@@H](Cc1ccccc1)C(N)=O` yielded an inhibition of 24%. Take `NC(=O)C(NC(=O)c1ccccc1)SCc1ccccc1` (centres undefined): the inhibition in assay [6] stood at 3%; in assay [5], 21%. `NC(=O)C[C@H](NC(=O)OCC1c2ccccc2-c2ccccc21)C(=O)O` displayed an inhibition in assay [5] of 33%. As to `NC(CCC(=O)OCc1ccccc1)C(=O)OCc1ccccc1` (centres undefined), in [5], the inhibition was found to be 34%. As to `NC(Cc1c[nH]c2ccccc12)C(=O)OCc1ccccc1` (centres undefined), the inhibition in assay [5] was found to be 54%. Regarding `NS(=O)(=O)c1ccc(NC(=O)/C=C/c2ccccc2)cc1`, the inhibition in [6] was found to be 11%; in [5], 33%. The compound `O=C(CC(=O)c1cccnc1)NC(=O)c1ccccc1` returned an inhibition in assay [5] of 43%. The same measure, in the same setting: as for `O=C(CNC(=O)c1ccccc1)OC(C(=O)O)c1ccc(F)cc1` (centres undefined), the figure is 12%. As for `O=C(NCc1ccccc1)C(O)C(O)C(O)C(O)CO` (centres undefined), the inhibition is 2% in assay [6] and 15% in assay [5].

In the case of `O=C(Nc1ccc2nc(O)cc(C(=O)O)c2c1)Oc1ccccc1`, the inhibition in [6] came out at 74%; in [5] it was 48%.

`O=C(Nc1ccccc1C(=O)NCC1CC1)c1cccs1`: the inhibition in assay [5] came out at 60%.

`O=C(O)CCCC(=O)NC1CC2c3ccccc3C1c1ccccc12` (centres undefined): the inhibition was 7% in assay [6] and 31% in assay [5]. As to `O=C(O)[C@H](Cc1ccc(O)cc1)NS(=O)(=O)Cc1ccccc1`, the inhibition in assay [5] came out at 60%. Take `O=C(O)c1ccc(NCn2c(=S)[nH]c3ccccc32)cc1O`: the inhibition in [6] was found to be 1%; in assay [5] it was 54%. For `OCC(Oc1ccccc1)C(O)C(O)C(CO)Oc1ccccc1` (centres undefined), the inhibition in assay [5] stood at 5%. With `COC(=O)[C@H](C)NC(=O)[C@H](Cc1ccccc1)NC(=O)[C@H](C)NC(=O)OCc1ccccc1` (Cbz-Ala-Phe-Ala-OMe), the inhibition in [5] and in assay [7] was 24% each time. For the compound `CC(O)C(C=O)NC(=O)CNC(=O)OCc1ccccc1` (stereo not drawn) (Cbz-Gly-[ξT]-aldehyde), the inhibition in assay [5] is 23%. Turning to `COC(=O)[C@H](CO)NC(=O)[C@H](CC(C)C)NC(=O)[C@H](CC(C)C)NC(=O)OCc1ccccc1` (Cbz-Leu-Leu-Ser-OMe), the “increase” value in the assay with MM1R [1] was “Active”. Further, the Activity in assay [2] worked out at 4%. In assay [3], the pIC50 is 4.79. Further, in assay [4], the pKi was 6.38. The TDI result in assay [8] is “Active”. The compound `CC(C)C[C@H](NC(=O)OCc1ccccc1)C(=O)N[C@@H](Cc1ccc(O)cc1)C(N)=O` (Cbz-Leu-Tyr-NH2) returned an inhibition in assay [5] of 17%. In turn, `COC(=O)[C@H](C)NC(=O)[C@H](CC(C)C)NC(=O)[C@H](Cc1ccccc1)NC(=O)OCc1ccccc1` (Cbz-Phe-Leu-Ala-OMe) returned an inhibition in assay [5] of 22%. In [6], `COC(=O)[C@H](Cc1ccccc1)NC(=O)[C@H](Cc1ccccc1)NC(=O)[C@H](Cc1ccccc1)NC(=O)OCc1ccccc1` (Cbz-Phe-Phe-Phe-OMe) displayed an inhibition of 18%. Regarding `CC(C)CC(NC(=O)C(CO)NC(=O)OCc1ccccc1)C(=O)NC(Cc1ccc(O)cc1)C(N)=O` (stereo not drawn) (Cbz-Ser-Leu-Tyr-NH2; configuration not given here), the inhibition in [6] is 29%. Moreover, the “increase” value in the assay on MM1R [1] was “Active”. In assay [2], the Activity worked out at 4%. Also, in [3], the pIC50 was 4.55. For the same compound, the pKi in assay [4] is 5.66. In the case of `CC(C)C[C@H](NC(=O)[C@H](CO)NC(=O)OCc1ccccc1)C(=O)N[C@@H](Cc1ccc(O)cc1)C(=O)NN` (Cbz-Ser-Leu-Tyr-NHNH2), the inhibition amounted to 26% in assay [6] and 23% in assay [7]. Besides, the Activity in assay [2] is listed as 4%. The negative logarithm of the IC50 (pIC50) in [3] was 4.53. Besides, the pKi in assay [4] was 4.96. The TDI result in [8] is “Active”. In assay [6], `COC(=O)[C@H](Cc1ccc(O)cc1)NC(=O)[C@H](CC(C)C)NC(=O)[C@H](CO)NC(=O)OCc1ccccc1` (Cbz-Ser-Leu-Tyr-OMe) registered an inhibition of 22%. For the same compound, the “increase” value in the assay with MM1R [1] was “Active”. For the same compound, the Activity in assay [2] is 4%. Besides, in [3], the pIC50 is 4.65. The compound further had a pKi in assay [4] of 5.33. The TDI result in [8] is “Active”.

`COC(=O)[C@H](CC(C)C)NC(=O)[C@H](Cc1ccccc1)NC(=O)[C@H](CO)NC(=O)OCc1ccccc1` (Cbz-Ser-Phe-Leu-OMe): the “increase” value in the assay with MM1R [1] is “Active”. Moreover, the Activity in assay [2] was determined as 4%. Moreover, in assay [3], the negative-log IC50 (pIC50) was 4.75. In assay [4], this compound gave a negative logarithm of the Ki (pKi) of 4.99. In addition, the TDI result in assay [8] was “Active”. In the case of `CC(C)[C@H](NC(=O)[C@H](Cc1ccc(O)cc1)NC(=O)OCc1ccccc1)C(N)=O` (Cbz-Tyr-Val-NH2), the inhibition in assay [6] was 23%; in assay [5] it was 11%. `COC(=O)[C@H](CC(C)C)NC(=O)[C@H](CC(N)=O)NC(=O)[C@@H](NC(=O)OCc1ccccc1)C(C)C` (Cbz-Val-Asn-Leu-OMe): the inhibition in [6] was 32%; in [5], 15%. The corresponding values for `CCC[C@H](NC(=O)OCc1ccccc1)C(=O)N[C@@H](Cc1ccc(O)cc1)C(N)=O` (Cbz-[Nva]-Tyr-NH2) are 33% and 18%. As for `CCCC(NC(=O)OCc1ccccc1)C(=O)NC(Cc1ccc(O)cc1)C(N)=O` (centres undefined) (Cbz-[Nva]-Tyr-NH2; configuration not given here), the inhibition in [5] turned out to be 17%.

On to `CCC(C)C(NC(=O)OCc1ccccc1)C(=O)N[C@@H](Cc1ccc(O)cc1)C(=O)O` (some centres undefined) (Cbz-[ξI]-Tyr-OH), for which the values for the inhibition in assay [6] and in assay [5] were 11% and 34%, respectively. Regarding `CC(C)CC(NC(=O)OCc1ccccc1)C(=O)N[C@@H](Cc1ccc(O)cc1)C(=O)O` (some centres undefined) (Cbz-[ξL]-Tyr-OH), in assay [5], the inhibition stood at 8%. On the same count and under the same terms, to `O=C(NC(Cc1ccc(O)cc1)C(=O)N[C@@H](Cc1ccccc1)C(=O)O)OCc1ccccc1` (some centres undefined) (Cbz-[ξY]-Phe-OH) belongs 7%. With `CC(C)C[C@@H](C=O)NC(=O)[C@H](CC(C)C)NC(=O)[C@H](CC(C)C)NC(=O)OCc1ccccc1` [MG-132] (Cbz-Leu-Leu-Leu-aldehyde), the inhibition result with MM1R [9] is “Active”. For the same compound, the pIC50 in [3] is 4.91.
